Data published in patent US20240018153A1, “BENZENESULFONAMIDE DERIVATIVES AND USES THEREOF” (2692372 ONTARIO, INC., priority 2020, published 2024).

Key:
EGFR [1] = molecular target: T1, EGFR (Homo sapiens (Human), UniProt P00533); assay: Time-dependent inhibition of EGFR (HTRF); format: biochemical; settings: pre-incubation 0-60 min; for Time-dependent inhibition of EGFR: product formation versus pre-incubation time: mono-exponential decay fit
Method: For the time-dependent inhibition experiments, the activity of EGFR kinase was monitored using a HTRF® KinEASE-TK kit from Cisbio (62TK0PEC) as described above. Six compounds showing higher potency during dose response analysis against EGFR, were further evaluated for their change in inhibitory potency over time. Ibrutinib was used as a positive control. The selected compounds were pre incubated with the kinase at 11 different concentrations, ranging from […] to 25 uM final compound concentrations. The pre incubation times were 0, 2, 5, 10, 15, 30, 45 and 60 min. After the preincubation, the reaction was initiated by adding biotinylated substrate and ATP and the reaction was allowed to proceed for 45 min. […] The reaction was terminated by adding 31.25 nM SA-XL665 and 100 fold diluted europium labelled antibody (Eu-Ab), diluted in 1× detection buffer that contained EDTA. After 60 min of incubation, the fluorescence emission was measured at 620 nm and 665 nm. The ratio of Em 665 nm to Em 620 nm was proportional to the amount of substrate phosphorylated by the kinase. Product formation vs pre-incubation time data were fitted to a one phase exponential decay equation using GraphPad Prism. The same product formation vs inhibitor concentration data were also fitted to a log(antagonist) vs. response—Variable slope equation in GraphPad Prism to provide IC50 values at different pre incubation times.

EGFR [2] = molecular target: T1, EGFR; assay: Jump dilution experiment, EGFR; format: biochemical; settings: 1.5-h incubation, 46 nM EGFR, 10×IC50 compound, 100-fold dilution
Method: Six compounds (used at 10 times their IC50 concentrations) were pre incubated with EGFR (at 46 nM or 100-fold the normal assay concentration) for 1.5 h at room temperature. Sample containing only DMSO vehicle was used as a positive (full activity) control while sample with no enzyme was used as a negative (zero activity) control. After the preincubation, the mixture was diluted 100-fold into a reaction mixture containing 0.5 uM biotinylated substrate and 1.57 uM ATP and the reaction was allowed to proceed for various time points (2, 5, 10, 15, 30, 40, 45 and 60 min), at which the reaction was terminated by adding 1 ul of 0.5 M EDTA. 31.25 nM SA-XL665 and 100-fold diluted europium labelled antibody (Eu-Ab), diluted in 1× detection buffer, was added as detection mixture. After 60 min of incubation, the fluorescence emission was measured at 620 nm and 665 nm. The ratio of Em 665 nm to Em 620 nm was proportional to the amount of substrate phosphorylated by the kinase.

[3] = molecular target: His-tagged BTK protein (SEQ ID NO: 1) (Homo sapiens (Human), UniProt Q06187); assay: Intact mass analysis (LC-MS/MS) of covalent modification; format: binding; settings: His-tagged BTK (unmodified 32,650 Da) incubated with compound
Chain of His-tagged BTK protein (SEQ ID NO: 1) (Q06187 other isoform, or with tags, fused parts or gaps): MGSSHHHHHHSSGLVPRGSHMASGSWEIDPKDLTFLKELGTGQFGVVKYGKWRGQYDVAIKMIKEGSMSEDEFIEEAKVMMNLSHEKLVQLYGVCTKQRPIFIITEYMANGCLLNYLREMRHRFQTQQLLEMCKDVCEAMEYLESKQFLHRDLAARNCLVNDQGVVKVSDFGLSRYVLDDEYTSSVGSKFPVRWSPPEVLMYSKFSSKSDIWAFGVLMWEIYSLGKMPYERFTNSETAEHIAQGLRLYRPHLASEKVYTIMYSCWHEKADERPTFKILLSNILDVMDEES
Method: The covalent modification of the proteins with the compounds were evaluated using intact mass analysis by liquid chromatography-mass spectrometry instrument (LC-MS/MS).
The reaction solution (20 μL) was prepared in 96-well plate and contained the protein (2 μM), the compound (100 μM), HEPES buffer (20 mM, pH 8), 2% DMSO, 2% glycerol, and 150 mM NaCl. The reaction was allowed to proceed for 24 h at 25° C. The reaction solution (1 μL) was injected into the LC/MS/MS without any further sample preparation.
The LC-MS/MS instrument comprises of a Waters G2-XS quadrupole-time of flight (QTof) mass spectrometer and a Waters Acuity I-class Ultra-High Performance Liquid Chromatography (UPLC) system. The I-class UPLC system includes a binary solvent manager (BSM), and a Acquity sample manager (SM). The mobile phase consisted of: A) 0.1% (v/v) formic acid in MilliQ water; B) 0.1% (v/v) formic acid acetonitrile. Gradients were run over 5 min and proceeded as follows: A:B, 85:15, 0.0-0.7 min, 85:15→15:85, 0.7-1.5 min, 10:90, 1.5-4 min, 10:90→85:15, 4-4.5 min, 85:15, 4.5-5 min. The analytical column was a Waters BEH C4 column 1.7 μm (50×1 mm) column with pore sizes of […]. The TOF MS data was collected in positive ion mode (m/z of 400-2000 Da) using MassLynx software (Waters).
The spectral deconvolution was performed using UNIFI software (Waters). The added mass of the protein upon covalent modification to cysteine residues were specified. Multiple modification of up to 8 cysteine was allowed. All the adducts with signal intensities of <2% of the base peak were ignored. The % modification was calculated as the adduct signal intensity over the total intensities of the protein peaks and the adducts.

T1 sequence (P00533 25-1210): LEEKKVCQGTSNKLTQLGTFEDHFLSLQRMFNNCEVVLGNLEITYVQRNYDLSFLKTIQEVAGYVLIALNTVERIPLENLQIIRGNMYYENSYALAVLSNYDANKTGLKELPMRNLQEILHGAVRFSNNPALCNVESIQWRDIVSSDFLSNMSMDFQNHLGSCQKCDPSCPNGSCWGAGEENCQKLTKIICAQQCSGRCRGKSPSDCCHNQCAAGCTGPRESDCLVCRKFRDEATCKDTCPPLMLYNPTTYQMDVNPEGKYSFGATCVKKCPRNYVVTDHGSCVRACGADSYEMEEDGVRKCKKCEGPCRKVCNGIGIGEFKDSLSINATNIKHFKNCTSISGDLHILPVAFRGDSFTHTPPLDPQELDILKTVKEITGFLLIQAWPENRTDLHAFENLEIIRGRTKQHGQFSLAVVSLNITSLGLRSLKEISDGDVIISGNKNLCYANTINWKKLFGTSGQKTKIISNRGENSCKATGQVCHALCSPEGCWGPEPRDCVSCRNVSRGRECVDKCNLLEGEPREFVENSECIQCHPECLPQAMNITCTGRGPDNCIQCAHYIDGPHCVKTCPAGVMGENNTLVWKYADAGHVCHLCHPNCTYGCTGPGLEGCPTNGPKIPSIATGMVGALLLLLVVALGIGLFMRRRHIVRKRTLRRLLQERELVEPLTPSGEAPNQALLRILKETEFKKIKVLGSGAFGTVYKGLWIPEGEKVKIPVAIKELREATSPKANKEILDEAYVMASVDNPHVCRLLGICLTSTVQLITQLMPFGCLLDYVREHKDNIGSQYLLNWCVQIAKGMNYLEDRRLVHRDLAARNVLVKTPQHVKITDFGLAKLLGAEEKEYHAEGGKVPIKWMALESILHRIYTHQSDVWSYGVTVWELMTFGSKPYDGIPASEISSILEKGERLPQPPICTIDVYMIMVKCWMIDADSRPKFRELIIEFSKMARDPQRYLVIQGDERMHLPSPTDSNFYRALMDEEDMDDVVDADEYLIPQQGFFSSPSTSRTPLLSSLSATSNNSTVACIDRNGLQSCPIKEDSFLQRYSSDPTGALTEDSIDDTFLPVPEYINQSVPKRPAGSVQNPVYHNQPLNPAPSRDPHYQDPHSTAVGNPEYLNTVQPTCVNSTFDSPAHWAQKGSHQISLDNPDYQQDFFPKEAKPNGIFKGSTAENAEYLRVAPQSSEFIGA

SMILES	residual activity of EGFR after jump dilution, relative to enzyme incubated with DMSO alone (EGFR [2])	covalent adduct mass (intact mass analysis, modification by one molecule) [3]	Time-dependent inhibition of EGFR: product formation versus pre-incubation time (EGFR [1])	Time-dependent inhibition of EGFR: IC50 values versus pre-incubation time (EGFR [1])
C[S@+]([O-])c1c(F)c(F)c(F)c(F)c1C(=O)N1CC(n2nc(-c3ccc(Oc4ccccc4)cc3)c3c(N)ncnc32)C1 (racemic) [Compound I-37, (3-(4-amino-3-(4-phenoxyphenyl)-1H-pyrazolo[3,4-d]pyrimidin-1-yl)azetidin-1-yl)(2,3,4,5-tetrafluoro-6-(methylsulfinyl)phenyl)methanone]			concentration-dependent first order loss of enzyme activity	decrease as pre-incubation times increase
Nc1ncnc2c1c(-c1ccc(Oc3ccccc3)cc1)nn2[C@@H]1CCN(S(=O)(=O)c2c(F)c(F)c(F)c(F)c2OCF)C1 [Compound I-24, (R)-3-(4-phenoxyphenyl)-1-(1-((2,3,4,5-tetrafluoro-6-(fluoromethoxy)phenyl)sulfonyl)pyrrolidin-3-yl)-1H-pyrazolo[3,4-d]pyrimidin-4-amine]		33,263 Da		

Second part, led by results:

residual activity of EGFR after jump dilution, relative to enzyme incubated with DMSO alone (EGFR [2])	covalent adduct mass (intact mass analysis, modification by one molecule) [3]	SMILES	Time-dependent inhibition of EGFR: product formation versus pre-incubation time (EGFR [1])	Time-dependent inhibition of EGFR: IC50 values versus pre-incubation time (EGFR [1])
less than 20%		C[S+]([O-])c1c(F)c(F)c(F)c(F)c1Nc1cc2c(Nc3ccc(F)c(Cl)c3)ncnc2cc1O[C@H]1CCOC1 (stereo partly drawn) [Compound I-4, N^4-(3-chloro-4-fluorophenyl)-N^6-(2,3,4,5-tetrafluoro-6-(methylsulfinyl)phenyl)-7-(((S)-tetrahydrofuran-3-yl)oxy)quinazoline-4,6-diamine]	concentration-dependent first order loss of enzyme activity	decrease as pre-incubation times increase
less than 20%		CS(=O)(=O)c1c(F)c(F)c(F)c(F)c1Nc1cc2c(Nc3ccc(F)c(Cl)c3)ncnc2cc1O[C@H]1CCOC1 [Compound I-2, (S)—N^4-(3-chloro-4-fluorophenyl)-N^6-(2,3,4,5-tetrafluoro-6-(methylsulfonyl)phenyl)-7-((tetrahydrofuran-3-yl)oxy)quinazoline-4,6-diamine]	concentration-dependent first order loss of enzyme activity	decrease as pre-incubation times increase
less than 20%		C[S+]([O-])c1c(F)c(F)c(F)c(F)c1C(=O)Nc1cc2c(Nc3ccc(F)c(Cl)c3)ncnc2cc1OC1CCOC1 (stereo not drawn) [Compound I-3]	concentration-dependent first order loss of enzyme activity	decrease as pre-incubation times increase
